Results as given in patent US8039644B2, “Hydrogenated benzo (C) thiophene derivatives as immunomodulators” (Actelion Pharmaceuticals Ltd., priority 2005, dated 2011).

Target: recombinant human S1P1 receptor (Homo sapiens, UniProt P21453)
Experiment: GTPγS assay to determine EC50 values
Assay type: biochemical
Conditions: GTPγS binding, membrane preparations of CHO cells expressing recombinant human S1P1 receptor
Experimental: GTPγS Assay to Determine EC50 Values
GTPγS binding assays are performed in 96 well microtiter plates (Nunc, 442587) in a final volume of 200 μl, using membrane preparations of CHO cells expressing recombinant human S1P1 receptor. Assay conditions are 20 mM Hepes (Fluka, 54461), 100 mM NaCl (Fluka, 71378), 5 mM MgCl2 (Fluka, 63064), 0.1% BSA (Calbiochem, 126609), 1 μM GDP (Sigma, G-7127), 2.5% DMSO (Fluka, 41644), 50 pM ^35S-GTPγS (Amersham Biosciences, SJ1320). The pH is 7.4. Test compounds are dissolved and diluted in 100% DMSO and pre-incubated at room temperature for 30 min in 150 μl of the above assay buffer, in the absence of ^35S-GTPγS. After addition of 50 μl of ^35S-GTPγS, the assay is incubated for 1 h at rt. The assay is terminated by transfer of the reaction mixture to a Multiscreen plate (Millipore, MAHFC1H60) using a cell harvester from Packard Biosciences, and the plates are washed with ice-cold 10 mM Na2HPO4/NaH2PO4 (70%/30%), dried, sealed at the bottom and, after addition of 25 μl MicroScint20 (Packard Biosciences, order#6013621), sealed on the top. Membrane-bound ^35S-GTPγS is measured with a TopCount from Packard Biosciences.
EC50 is the concentration of agonist inducing 50% of the maximal specific ^35S-GTPγS binding. Specific binding is determined by subtracting non-specific binding from maximal binding. Maximal binding is the amount of cpm bound to the Multiscreen plate in the presence of 10 μM of S1P. Non-specific binding is the amount of binding in the absence of an agonist in the assay.
The EC50 values were determined according to the method described above.

Chain of recombinant human S1P1 receptor (P21453 whole entry): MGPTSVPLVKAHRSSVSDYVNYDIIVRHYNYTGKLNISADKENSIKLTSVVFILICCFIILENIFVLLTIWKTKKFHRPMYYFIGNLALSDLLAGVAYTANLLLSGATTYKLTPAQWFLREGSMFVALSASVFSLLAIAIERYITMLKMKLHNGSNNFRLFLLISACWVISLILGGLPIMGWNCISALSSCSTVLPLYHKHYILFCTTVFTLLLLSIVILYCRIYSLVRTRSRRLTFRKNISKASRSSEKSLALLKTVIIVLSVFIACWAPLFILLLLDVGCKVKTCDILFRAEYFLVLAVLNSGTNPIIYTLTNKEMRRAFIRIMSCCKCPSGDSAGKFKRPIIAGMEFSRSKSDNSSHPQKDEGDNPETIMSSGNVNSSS

Cc1cc(CCC(=O)c2sc(C)c3c2CCC(C)(C)C3)cc(C)c1OC[C@@H](O)CO [Example 27]
EC50: 2.4 nM

Cc1cc(CCC(=O)c2sc(C)c3c2CCC(C)(C)C3)cc(C)c1OCC(O)CNCCC(=O)O (stereo not shown) [Example 41]
EC50: 2.8 nM

COc1cc(CCC(=O)c2sc(C)c3c2CCC(C)(C)C3)cc(Cl)c1OCC(O)CNCCC(=O)O (stereo not shown) [Example 62]
EC50: 5.9 nM

CCc1sc(C(=O)CCc2cc(C)c(OCCO)c(C)c2)c2c1CC(C)(C)CC2 [Example 66]
EC50: 2.5 nM

CCc1sc(C(=O)CCc2cc(C)c(OCC(O)COC)c(C)c2)c2c1CC(C)(C)CC2 (stereo not shown) [Example 71]
EC50: 5.9 nM

CCc1sc(C(=O)CCc2cc(C)c(OCC(O)CNC(CO)CO)c(C)c2)c2c1CC(C)(C)CC2 (stereo not shown) [Example 77]
EC50: 1.8 nM

CCc1sc(C(=O)CCc2cc(C)c(OCC(O)CNCCN)c(C)c2)c2c1CC(C)(C)CC2 (stereo not shown) [Example 79]
EC50: 3.7 nM

CCc1sc(C(=O)CCc2cc(C)c(OCC(O)CNCCC(=O)O)c(C)c2)c2c1CC(C)(C)CC2 (stereo not shown) [Example 80]
EC50: 0.6 nM

CCc1sc(C(=O)CCc2cc(C)c(OCCNC(C)C)c(C)c2)c2c1CC(C)(C)CC2 [Example 114]
EC50: 4.1 nM

Cc1cc(-c2noc(-c3scc4c3CCC(C)(C)C4)n2)cc(C)c1OCC(O)CNC(=O)CO (stereo not shown) [Example 129]
EC50: 3.8 nM

COc1cc(CCC(=O)c2sc(C)c3c2CCC(C)(C)C3)cc(Cl)c1OCC(O)CNC(=O)CO (stereo not shown) [Example 149]
EC50: 5.1 nM

CCc1sc(C(=O)CCc2ccc(OCCO)cc2OC)c2c1CC(C)(C)CC2 [Example 210]
EC50: 1.1 nM

CCc1sc(C(=O)CCc2ccc(OCCNS(C)(=O)=O)cc2OC)c2c1CC(C)(C)CC2 [Example 230]
EC50: 2.9 nM

CCc1sc(C(=O)CCc2cc(Cl)c(OCCNC(=O)CNC)c(OC)c2)c2c1CC(C)(C)CC2 [Example 247]
EC50: 3.1 nM

CCc1sc(C(=O)CCc2ccc(OCCCNS(C)(=O)=O)cc2OC)c2c1CC(C)(C)CC2 [Example 269]
EC50: 1.8 nM

CCc1sc(C(=O)CCc2cc(C)c(OCC(O)CN)c(C)c2)c2c1CC(C)(C)CC2 (stereo not shown) [Example 271]
EC50: 1.7 nM

CCc1sc(C(=O)CCc2cc(C)c(OCC(O)CN3CC(C(=O)O)C3)c(C)c2)c2c1CC(C)(C)CC2 (stereo not shown) [Example 296]
EC50: 1 nM

CCc1sc(C(=O)CCc2cc(C)c(OCC(O)CNC(=O)CN)c(Cl)c2)c2c1CC(C)(C)CC2 (stereo not shown) [Example 312]
EC50: 0.8 nM

CCc1cc(CCC(=O)c2sc(CC)c3c2CCC(C)(C)C3)cc(C)c1CCCN [Example 339, 3-[4-(3-Amino-propyl)-3-ethyl-5-methyl-phenyl]-1-(3-ethyl-5,5-dimethyl-4,5,6,7-tetrahydro-benzo[c]thiophen-1-yl)-propan-1-one]
EC50: 1.8 nM

CCc1cc(CCC(=O)c2sc(CC)c3c2CCC(C)(C)C3)cc(C)c1CCCNC(=O)CCNC [Example 351]
EC50: 3.4 nM

CCc1sc(C(=O)CCc2ccc(S(=O)(=O)NCCN)cc2)c2c1CC(C)(C)CC2 [Example 356, N-(2-amino-ethyl)-4-[3-(3-ethyl-5,5-dimethyl-4,5,6,7-tetrahydro-benzo[c]thiophen-1-yl)-3-oxo-propyl]-benzenesulfonamide]
EC50: 8 nM

CCc1sc(C(=O)CNc2ccccc2OC)c2c1CC(C)(C)CC2 [Example 378]
EC50: 6.1 nM

CCCc1sc(C(=O)CCc2cc(C)c(OC[C@H](O)CO)c(C)c2)c2c1CC(C)(C)CC2 [Example 414]
EC50: 4.2 nM

CCc1sc(C(=O)/C=C/c2cc(C)c(O)c(C)c2)c2c1CC(CC)(CC)CC2 [Example 423, 3-(4-Hydroxy-3,5-dimethyl-phenyl)-1-(3,5,5-triethyl-4,5,6,7-tetrahydro-benzo[c]thiophen-1-yl)-propenone]
EC50: 7.6 nM

Cc1cc(-c2noc(-c3scc4c3CCC3(CC3)C4)n2)cc(C)c1OCC(O)CNC(=O)CO (stereo not shown) [Example 457]
EC50: 6.2 nM

CCc1cc(CCC(=O)c2sc(C(F)(F)F)c3c2CCC(C)(C)C3)cc(C)c1OCC(O)CNC(=O)CCO (stereo not shown) [Example 489]
EC50: 2.9 nM

Cc1cc(CCC(=O)c2sc(C(F)(F)F)c3c2CCC(C)(C)C3)cc(C)c1NCC(O)CO (stereo not shown) [Example 501, 3-[4-(2,3-Dihydroxy-propylamino)-3,5-dimethyl-phenyl]-1-(5,5-dimethyl-3-trifluoromethyl-4,5,6,7-tetrahydro-benzo[c]thiophen-1-yl)-propan-1-one]
EC50: 2.6 nM

Cc1cc(C)cc(NCC(=O)c2sc(C(F)(F)F)c3c2CCC(C)(C)C3)c1 [Example 517]
EC50: 9.7 nM
